{"source": "patent US11135252B2", "about": "“Probiotic therapies for developmental disorders and other neurological disorders” (Baylor College of Medicine, priority 2016, dated 2021)", "key": {"Cntnap2-deficient mice": {"tested_on": "Cntnap2-deficient mice", "details": "mice lacking Cntnap2; oxytocin (Penagarikano et al., 2015; 2011); cited from earlier work"}, "[1]": {"tested_on": "oxytocin immunoreactivity in the PVN", "experiment": "Oxytocin immunofluorescence in the PVN of MHFD offspring", "type": "in vivo, mice", "details": "for oxytocin-positive cell number in the PVN: relative to heat-killed L. reuteri / control treatment", "protocol": "Lactobacillus reuteri MM4-1A (ATCC-PTA-6475) and Lactobacillus johnsonii (ATCC 33200) were cultured anaerobically in MRS broth in a 90% N2, 5% CO2, 5% H2 environment. L. reuteri was heat-killed by keeping the bacteria at 80° C. for 20 minutes (Wang et al., 2010). Bacterial viability was assessed by plating and the efficacy of the heat-kill procedure was confirmed by the absence of colony growth following plating. Cultures were centrifuged, washed, and resuspended in anaerobic solution (PBS) and frozen at −80° C. until use. PBS, live or heat-killed L. reuteri were added to the drinking water, which was changed daily to minimize dosage variability. Whereas the experimental group received live bacteria, one control group received identically prepared cultures of heat-killed bacteria. A second group of control mice received water treated with PBS alone. Live and heat-killed L. reuteri were supplied at a dosage of 1×10^8 organisms/mouse/day continuously in drinking water. Mice consumed the treated water ad libitum over the treatment period. The treated drinking water for each group was replaced daily two hours prior to the onset of the dark cycle to minimize variation in microbial exposure. Behavioral assays were initiated after 4-weeks of L. reuteri or control treatment. The protocol of the L. johnsonii preparation and administration matched the L. reuteri protocol. Fecal samples for sequencing and tissue used in the immunofluorescence studies were collected at the end of the treatment.\nMice were deeply anesthetized by inhalation of isoflurane and perfused transcardially with 10 ml 0.9% phosphate-buffered saline followed by 30 ml 4% paraformaldehyde in 0.1M phosphate buffer (PFA). […] Fluorescence intensity was measured in ImageJ (NIH) by selecting regions of interest (Oxytocin- and NeuN-positive hypothalamic cell bodies). Hypothalamic oxytocin-expressing neuronal population and NeuN+ cell number was assessed in ImageJ using the following operational sequence: (1) open image file, (2) subtract background, (3) adjust threshold, (4) convert to mask, (5) watershed, (6) analyze particles. […]"}, "GF mice": {"tested_on": "GF mice", "experiment": "Three-chamber social test in germ-free mice treated with L. reuteri", "type": "in vivo", "protocol": "C57Bl6/J mice were obtained from Jackson Laboratories (#000-664) and were kept on a 12 h light/dark cycle and had access to food and water ad libitum. Females were placed on either a regular diet (RD) consisting of 13.4% kcal from fat, 30% kcal from protein, and 57% kcal from carbohydrates (Lab Diets, #5001) or high fat diet (HFD) consisting of 60% kcal from fat, 20% kcal from protein, and […] kcal from carbohydrates (Research Diets, #D12492). Maternal weight was measured weekly. Maternal total and fat mass were measured using an mq7.5 Minispec NMR body composition analyzer. After eight weeks on diet, females were paired with C57B16/J adult males to produce subject offspring. Resulting offspring were weaned at three weeks of age and all placed on RD, regardless of maternal diet (MRD or MHFD). Germ-free mice (C57B16/J) were maintained in a flexible isolator fed with HEPA-filtered air and provided with irradiated food and water. Germ-free offspring were weaned at four weeks of age. All behavioral tests were performed on 7-12-week-old male mice.\nCrawley's three-chamber test for sociability and preference for social novelty was performed as described (Silverman et al., 2010). In brief, the mouse first experienced a 10-minute period of habituation during which it was allowed to freely explore a 60×40×23 cm Plexiglass arena divided into three equally sized, interconnected chambers (Left, Center, Right). Sociability was measured during a second ten-minute period in which the subject could interact either with an empty wire cup (Empty) or a wire cup containing an age and sex-matched stranger conspecific (Mouse 1). Time spent interacting (sniffing, crawling upon) with either the empty cup or the stranger mouse contained in the other cup as well as time spent in each chamber was recorded using the AnyMaze software, by independent observers. […] Time spent in each chamber as well as time spent interacting with either Mouse 1 or Mouse 2 was recorded using the automated AnyMaze software by independent observers. […]"}}}
{"compound": "CC[C@H](C)[C@@H]1NC(=O)[C@H](Cc2ccc(O)cc2)NC(=O)[C@@H](N)CSSC[C@@H](C(=O)N2CCC[C@H]2C(=O)N[C@@H](CC(C)C)C(=O)NCC(N)=O)NC(=O)[C@H](CC(N)=O)NC(=O)[C@H](CCC(N)=O)NC1=O", "note": "[oxytocin]", "values": [{"measurement": "social behavioral abnormalities", "setting": "Cntnap2-deficient mice", "result": "rescues the social behavioral abnormalities"}]}
{"compound": "Lactobacillus reuteri MM4-1A (ATCC-PTA-6475) [L. reuteri]", "values": [{"measurement": "oxytocin immunofluorescence intensity in the PVN", "setting": "[1]; relative to heat-killed L. reuteri", "result": "significantly increased"}, {"measurement": "oxytocin-positive cell number in the PVN", "setting": "[1]", "result": "higher than in control-treated MHFD offspring"}, {"measurement": "oxytocin-positive cell number in the PVN", "setting": "[1]; listed as live L. reuteri", "result": "significantly increased"}, {"measurement": "sociability", "setting": "GF mice; L. reuteri in drinking water", "result": "reverses the deficient sociability"}, {"measurement": "social novelty", "setting": "GF mice; L. reuteri in drinking water", "result": "reverses"}, {"measurement": "social behavior deficits", "setting": "GF mice; L. reuteri treatment", "result": "sufficient to restore the social behavior deficits"}]}
